From ChEMBL document CHEMBL3351704, “Synthesis and biological evaluation of 4-oxoquinoline-3-carboxamides derivatives as potent anti-fibrosis agents” (Bioorg Med Chem Lett, 2014)
Blank lines part the entries; values can stand above or below the compound they belong to. Calls of active or inactive are those of the source. The calls are words filed in the database; no cut-off is given here.

Key:
NRK-49F [1] = test: Inhibition of TGF-beta1-induced total collagen accumulation in rat NRK-49F cells at 10 uM; assay type: functional
RAW264.7 = test: Inhibition of LPS-induced TNFalpha production in mouse RAW264.7 cells 10 uM; assay type: functional
NRK-49F [2] = test: Inhibition of TGF-beta1-induced total collagen accumulation in rat NRK-49F cells; assay type: functional, cell-based
NRK-49F [3] = test: Inhibition of TGF-beta1-induced total collagen accumulation in rat NRK-49F cells at 3 uM by picro-sirius red staining method; assay type: functional, cell-based
Mus musculus [4] = test: Anti-fibrotic activity in mouse bleomycin-induced lung fibrosis model assessed as reduction in lung injury at 20 mg/kg/day, ip before bleomycin injection by H and E staining; assay type: functional, organism-based
Mus musculus [5] = test: Anti-fibrotic activity in mouse bleomycin-induced lung fibrosis model assessed as reduction in leukocytes in bronchoalveolar lavage fluid at 20 mg/kg/day, ip before bleomycin injection; assay type: functional; conditions: route intraperitoneal
Mus musculus [6] = test: Anti-fibrotic activity in mouse bleomycin-induced lung fibrosis model assessed as cumulative proportion of survival at 20 mg/kg/day, ip before bleomycin injection measured on day 28; assay type: functional; conditions: 672 h, route intraperitoneal
Mus musculus [7] = test: Anti-fibrotic activity in mouse bleomycin-induced lung fibrosis model assessed as slowing of body weight loss at 20 mg/kg/day, ip before bleomycin injection measured on day 28; assay type: functional, organism-based
Mus musculus [8] = test: Anti-fibrotic activity in mouse bleomycin-induced lung fibrosis model assessed as reduction in inflammatory infiltrate level at 20 mg/kg/day, ip before bleomycin injection by H and E staining; assay type: functional, organism-based
Mus musculus [9] = test: Anti-fibrotic activity in mouse bleomycin-induced lung fibrosis model assessed as reduction in hydroxyproline level at 20 mg/kg/day, ip before bleomycin injection; assay type: functional
Mus musculus [10] = test: Anti-fibrotic activity in mouse bleomycin-induced lung fibrosis model assessed as reduction in lymphocytes in bronchoalveolar lavage fluid at 20 mg/kg/day, ip before bleomycin injection; assay type: functional; conditions: route intraperitoneal
Mus musculus [11] = test: Anti-fibrotic activity in mouse bleomycin-induced lung fibrosis model assessed as reduction of lung collagen deposition at 20 mg/kg/day, ip before bleomycin injection by H and E staining; assay type: functional, organism-based
Mus musculus [12] = test: Anti-fibrotic activity in mouse bleomycin-induced lung fibrosis model assessed as reduction in neutrophils in bronchoalveolar lavage fluid at 20 mg/kg/day, ip before bleomycin injection; assay type: functional; conditions: route intraperitoneal
NRK-49F [13] = test: Inhibition of TGF-beta1-induced total collagen accumulation in rat NRK-49F cells at 5 uM by picro-sirius red staining method; assay type: functional, cell-based

SMILES: CCc1ccc(NC(=O)c2c[nH]c3ccc(C(C)(C)C)cc3c2=O)cc1
- inhibition at 10 µM (NRK-49F [1]): 19.4%

SMILES: Cc1ccc(NC(=O)c2c[nH]c3ccc(C(C)(C)C)cc3c2=O)cc1
- inhibition at 10 µM (NRK-49F [1]): 28.9%

SMILES: CC(C)(C)c1ccc2[nH]cc(C(=O)Nc3ccc(C(C)(C)C)c([N+](=O)[O-])c3)c(=O)c2c1
- inhibition at 10 µM (NRK-49F [1]): 75.7%
- inhibition (INH) (RAW264.7): 47.7%

SMILES: CCCCn1cc(C(=O)Nc2ccc(C(C)(C)C)cc2)c(=O)c2cc(C(C)(C)C)ccc21
- inhibition at 10 µM (NRK-49F [1]): 16.9%

SMILES: CC(C)(C)c1cccc(NC(=O)c2c[nH]c3ccc(C(C)(C)C)cc3c2=O)c1
- inhibition at 10 µM (NRK-49F [1]): 44.8%

SMILES: COc1ccc(NC(=O)c2c[nH]c3ccc(C(C)(C)C)cc3c2=O)cc1OC
- inhibition at 10 µM (NRK-49F [1]): 32.6%

SMILES: CC(C)(C)c1ccc(NC(=O)c2cn(CCN3CCCC3)c3ccc(C(C)(C)C)cc3c2=O)cc1
- inhibition at 10 µM (NRK-49F [1]): 44.8%

SMILES: CN1CCN(CCCn2cc(C(=O)Nc3ccc(C(C)(C)C)cc3)c(=O)c3cc(C(C)(C)C)ccc32)CC1
- inhibition at 10 µM (NRK-49F [1]): 52.1%

SMILES: CC(C)(C)c1ccc(NC(=O)c2cn(CCCN3CCOCC3)c3ccc(C(C)(C)C)cc3c2=O)cc1
- inhibition at 10 µM (NRK-49F [1]): 30.2%

- IC50 (NRK-49F [2]): 4100 nM
SMILES: CC(C)(C)c1ccc2[nH]cc(C(=O)Nc3ccc(C(C)(C)C)c(N)c3)c(=O)c2c1
- inhibition at 10 µM (NRK-49F [1]): 67.9%
- inhibition (NRK-49F [3]): Active
- inhibition (INH) (RAW264.7): 71.3%

SMILES: CC(C)(C)c1cc(C(C)(C)C)c(NC(=O)c2c[nH]c3ccc(F)cc3c2=O)cc1O
- inhibition at 10 µM (NRK-49F [1]): 51.6%

SMILES: Cc1ccc2[nH]cc(C(=O)Nc3cc(O)c(C(C)(C)C)cc3C(C)(C)C)c(=O)c2c1
- inhibition at 10 µM (NRK-49F [1]): 49.9%

SMILES: CC(C)(C)c1ccc2[nH]cc(C(=O)Nc3cc(O)c(C(C)(C)C)cc3C(C)(C)C)c(=O)c2c1
- inhibition at 10 µM (NRK-49F [1]): 73.8%
- inhibition (INH) (RAW264.7): 45.7%

SMILES: CCn1cc(C(=O)Nc2ccc(C(C)(C)C)cc2)c(=O)c2cc(C(C)(C)C)ccc21
- inhibition at 10 µM (NRK-49F [1]): 34.3%

SMILES: COc1ccccc1NC(=O)c1c[nH]c2ccc(C(C)(C)C)cc2c1=O
- inhibition at 10 µM (NRK-49F [1]): 47.9%

SMILES: CN1CCN(CCn2cc(C(=O)Nc3ccc(C(C)(C)C)cc3)c(=O)c3cc(C(C)(C)C)ccc32)CC1
- inhibition at 10 µM (NRK-49F [1]): 46.6%

SMILES: CC(C)(C)c1ccc(NC(=O)c2cn(CCCl)c3ccc(C(C)(C)C)cc3c2=O)cc1
- inhibition at 10 µM (NRK-49F [1]): 35.8%

SMILES: COc1ccc(NC(=O)c2c[nH]c3ccc(C(C)(C)C)cc3c2=O)cc1
- inhibition at 10 µM (NRK-49F [1]): 23.5%

SMILES: CC(C)(C)c1ccc2[nH]cc(C(=O)Nc3ccc(Cl)cc3)c(=O)c2c1
- inhibition at 10 µM (NRK-49F [1]): 27.2%

SMILES: CC(C)(C)c1ccc(NC(=O)c2c[nH]c3ccc(C(C)(C)C)cc3c2=O)cc1
- inhibition (Mus musculus [4]): inactive
- IC50 (NRK-49F [2]): 2000 nM
- inhibition in vivo at 20 mg/kg/day (Mus musculus [5]): 40.3%
- inhibition at 10 µM (NRK-49F [1]): 81%
- survival at 20 mg/kg/day (Mus musculus [6]): 83.3%
- Activity (Mus musculus [7]): Active
- inhibition (Mus musculus [8]): inactive
- inhibition (Mus musculus [9]): Active
- inhibition in vivo at 20 mg/kg/day (Mus musculus [10]): 33.6%
- inhibition (Mus musculus [11]): inactive
- inhibition (NRK-49F [3]): Active
- inhibition in vivo at 20 mg/kg/day (Mus musculus [12]): 39.7%
- inhibition (INH) (RAW264.7): 61.6%

- IC50 (NRK-49F [2]): 2300 nM
SMILES: CC(C)(C)c1ccc(NC(=O)c2cn(CCN3CCOCC3)c3ccc(C(C)(C)C)cc3c2=O)cc1
- inhibition at 10 µM (NRK-49F [1]): 71.1%
- inhibition (NRK-49F [3]): Active
- inhibition (NRK-49F [13]): Active
- inhibition (INH) (RAW264.7): 69.5%

SMILES: CCc1ccc2[nH]cc(C(=O)Nc3cc(O)c(C(C)(C)C)cc3C(C)(C)C)c(=O)c2c1
- inhibition at 10 µM (NRK-49F [1]): 55.9%

SMILES: CC(C)(C)c1ccc(NC(=O)c2cn(CCN3CCCCC3)c3ccc(C(C)(C)C)cc3c2=O)cc1
- inhibition at 10 µM (NRK-49F [1]): 30.1%

SMILES: CC(C)(C)c1cc(C(C)(C)C)c(NC(=O)c2c[nH]c3ccccc3c2=O)cc1O [IVACAFTOR]
- inhibition (Mus musculus [4]): inactive
- IC50 (NRK-49F [2]): 4000 nM
- inhibition at 10 µM (NRK-49F [1]): 64.7%
- inhibition (Mus musculus [8]): inactive
- inhibition (Mus musculus [11]): inactive
- inhibition (INH) (RAW264.7): 63.2%

SMILES: COc1cc(NC(=O)c2c[nH]c3ccc(C(C)(C)C)cc3c2=O)cc(OC)c1OC
- inhibition (Mus musculus [4]): Active
- IC50 (NRK-49F [2]): 2500 nM
- inhibition in vivo at 20 mg/kg/day (Mus musculus [5]): 54.8%
- inhibition at 10 µM (NRK-49F [1]): 77.1%
- survival at 20 mg/kg/day (Mus musculus [6]): 72.2%
- Activity (Mus musculus [7]): Active
- inhibition (Mus musculus [8]): Active
- inhibition in vivo at 20 mg/kg/day (Mus musculus [9]; route intraperitoneal): 52.4%
- inhibition in vivo at 20 mg/kg/day (Mus musculus [10]): 15.8%
- inhibition (Mus musculus [11]): Active
- inhibition (NRK-49F [3]): Active
- inhibition (NRK-49F [13]): Active
- inhibition in vivo at 20 mg/kg/day (Mus musculus [12]): 57.7%
- inhibition (INH) (RAW264.7): 70.8%

SMILES: CC(C)(C)c1ccc2[nH]cc(C(=O)Nc3ccc(F)cc3)c(=O)c2c1
- inhibition at 10 µM (NRK-49F [1]): 23.5%

SMILES: CC(C)(C)c1ccc2[nH]cc(C(=O)Nc3ccccc3C(C)(C)C)c(=O)c2c1
- inhibition at 10 µM (NRK-49F [1]): 54.3%

SMILES: CC(C)(C)c1ccc2[nH]cc(C(=O)Nc3cccc(Cl)c3)c(=O)c2c1
- inhibition at 10 µM (NRK-49F [1]): 30.5%

SMILES: COc1ccc2[nH]cc(C(=O)Nc3cc(O)c(C(C)(C)C)cc3C(C)(C)C)c(=O)c2c1
- inhibition at 10 µM (NRK-49F [1]): 53.1%

SMILES: CC(C)(C)c1ccc(NC(=O)c2cn(Cc3ccccc3)c3ccc(C(C)(C)C)cc3c2=O)cc1
- inhibition at 10 µM (NRK-49F [1]): 9.1%
